# Read-outs that look alike come from different tables or passages of the source.
# Assays:
# [1] = Oral bioavailability in fasted male rats (intravenous and oral dosing); type: in vivo; settings: for bioavailability / AUC(0-inf): rat, plasma; for bioavailability: from dose-normalized AUC.infin. oral vs intravenous; for AUC(0-inf): fasted male rats (n=3), read-out: area under the curve AUC.infin.
# Experimental: Fasted male rats (n=3) were given a single dose of the title compound either intravenously (10 μmol/kg as a 10 minute infusion) or orally by gavage (20 μmol/kg). The dosing vehicle was propylene glycol for the intravenous dose and PEG-400 for the oral dose. Following dosing, the average plasma concentration of the title compound was measured over time, and the area under the curve AUC.infin.
# [2] = Pre-systemic metabolic stability within the gastrointestinal tract, in vivo (bile duct cannulated rats); settings: rat, po, 29 mg/kg
# Experimental: Bile duct cannulated rats were fasted overnight. The title compound was administered as a solution in 5% sodium bicarbonate (ca. 8 mg/ml, 29 mg/kg) by oral gavage. Gastrointestinal tract homogenate was made in 3 volumes of water and an equal volume of acetonitrile was added.
# [3] = tested on: big ET-1 pressor response; assay: Pressor testing (ii): inhibition of big ET-1 pressor response over time after oral dosing; type: in vivo, Sprague-Dawley rats; settings: 3 μmol/kg, human big ET-1 1 nmol/kg i.v., n=3
# From the text: Peak pressor responses were compared to determine the amount of inhibition caused by the title compound at these time intervals.
# in vitro = settings: rat, cecal contents, pH 7.4
# Experimental: Rat cecal contents were quickly placed in cold, degassed potassium phosphate buffer (50 mM, pH 7.4, purged by nitrogen bubbling for at least 30 minutes). Each incubation contained ca. 0.1 g of cecal contents/ml. […] Samples were analyzed with HPLC-UV and LC-MS on a YMC-ODS AQ column (4.6×150 mm, 3μ) eluted with an ammonium acetate/acetonitrile gradient and detected at 270 nm.
# [4] = tested on: big ET-1 pressor response; assay: Pressor testing (i): inhibition of big ET-1 pressor response after intravenous dosing; type: in vivo; settings: Rattus norvegicus, 5 min, read-out: dose causing 50% inhibition of the big ET-1 pressor response (ED50), human big ET-1 1 nmol/kg i.v. before and 5 minutes after compound, conscious normotensive Sprague-Dawley rats
# Experimental: (i) Intravenous injection of big ET-1 into conscious, normotensive rats produces a transient increase in mean arterial pressure which can be blunted by an ETA receptor antagonist.
# A bolus injection of human big ET-1 (1 nmol/kg, intravenously; vehicle: 1% Tween 80 in 5% NaHCO3) was administered to Sprague-Dawley rats before and 5 minutes after intravenous injection of an amount of the title compound (0.01 μmol/kg (n=10), 0.03 μmol/kg (n=10), and 0.1 μmol/kg (n=3)). Peak pressor responses were compared to determine the amount of inhibition caused by the title compound.
"bioavailability ([1]; 20 umol/kg, fasted male rats)",metabolites in the gastrointestinal tract [2],remaining at 9 h [2],"remaining at 1 h, 200 µM (in vitro)","dose-normalized AUC.infin. values, intravenous versus oral ([1]; fasted male rats, 10 μmol/kg intravenous vs 20 μmol/kg oral)","AUC(0-inf) ([1]; 10 umol/kg, intravenous, 10 μmol/kg as a 10 minute infusion, propylene glycol vehicle)","AUC(0-inf) ([1]; 20 umol/kg, oral gavage, 20 μmol/kg, PEG-400 vehicle)",SMILES,% Inhibition (big ET-1 pressor response) ([3]; 15 minutes after dosing),% Inhibition (big ET-1 pressor response) ([3]; 105 minutes after dosing),% Inhibition (big ET-1 pressor response) ([3]; 195 minutes after dosing),ED50 [4]
~78%,,,,,,,"Cc1onc(NS(=O)(=O)c2ccccc2-c2ccc(-c3ncco3)cc2CN2CCC(C)(C)C2=O)c1C [N-(4,5-dimethyl-3-isoxazolyl)-2'-[(3,3-dimethyl-2-oxo-1-pyrrolidinyl)methyl]-4'-(2-oxazolyl)[1,1'-biphenyl]-2-sulfonamide]",,,,
~100%,metabolites were not observed,100%,100%,not statistically different,31.3 ± 2.9 µM·h,72.8 ± 17.3 µM·h,"Cc1onc(NS(=O)(=O)c2ccccc2-c2ccc(-c3ncco3)cc2CN(C)C(=O)CC(C)(C)C)c1C [N-[[2'-[[(4,5-dimethyl-3-isoxazolyl)amino]sulfonyl]-4-(2-oxazolyl)[1,1'-biphenyl]-2-yl]methyl]-N,3,3-trimethylbutanamide]",57 ± 7%,65 ± 13%,74 ± 8%,0.03 µmol/kg
